Laboratory results taken from US20260174766A1, “COMBINATION OF MENIN INHIBITOR(S) AND IMMUNOPROTEASOME INHIBITOR(S) FOR TREATMENT OF LEUKEMIA” (Medizinische Hochschule Hannover, priority 2022, published 2026).

Assays:
[1] = tested on: primary human leukemia cells harboring an MLL-AF4 fusion; experiment: MLL-AF4 patient-derived xenograft model with in vivo treatment and limiting dilution assay; parameters: species or system mouse; conditions: ELDA; engraftment >1% hCD45+ in peripheral blood three months after transplantation; DMSO 1/247973
Text: NOD.Cg-Prkdc^scid Il2rg^tm1Wjl Tg(CMV-IL3, CSF2, KITLG) 1Eav/MloySzJ (NSGS), NOD.Cg-Prkdc^scid Il2rg^tm1Wjl/SzJ (NSG) or NOD.Cg-Prkdc^scid Il2rg^tm1Wjl/RJ (NXG) were obtained from The Jackson Laboratory (Bar Harbor, ME, USA). 8-12-weeks old adult mice (male and female) were irradiated with 2 Gy (single dose) before transplantation. 1×10^5 MOLM-13, ML-2 or MV-4; 11 cells transduced with either of two PSMB8/LMP7 shRNAs or non-targeting control; with a pLEX vector containing the sequence of BASP1 or an empty vector; or treated ex vivo with the indicated inhibitors were injected intravenously via the tail vein. For patient derived xenograft experiments (PDX) of human MLLr leukemia we used an improved model for human HSC transplantation and analysis, that has been developed from immune-deficient mouse strains containing Kit mutations: NOD.Cg-^KitW-41J Prkdc^scid Il2rg^tm1Wjl/WaskJ (NSGW41) (Cosgun et al., 2014). […] Human myeloid engraftment (hCD45+ CD13+) was analyzed by flow cytometry. […]
FIGS. 4J-4K show number of engrafted mice per dilution (engraftment is considered if the percentage of hCD45+ cells is >1% in peripheral blood three months after transplantation) is shown and leukemic stem cell (LSC) frequency calculated using the ELDA (Extreme Limiting Dilution Assay) software (reference). […]

MLLr cell lines = experiment: Cell growth (cell counting after trypan blue exclusion) of MLLr cell lines; assay type: cell-based, human; conditions: 250-500 nM; MOLM-13, MV-4;11, ML-2, KOPN-8; FIG. 1H
Method: MOLM-13, MONO-MAC-6, THP-1, KOPN-8, ML-2, MV-4;11, OCI-AML3, U-937, KASUMI-1, K-562, HL-60 and LAMA-84 cells were purchased from DSMZ (Braunschweig, Germany). Cas9-Blast cell lines are subclones of the respective cell lines and stably transduced with lentiCas9-Blast (Addgene plasmid #52962). Cells were cultured in RPMI 1640 medium (Thermo Fisher Scientific, Waltham, MA, USA) supplemented with 10-20% FBS (Thermo Fisher Scientific) in a humid atmosphere of 5% CO2 at 37° C. MV4;11 cells harboring Menin-inhibitor resistance mediating mutations of Menin were generated by CRISPR-Cas9 technology.
Cellular proliferation was assessed by cell counting after trypan blue exclusion. Apoptosis of cells was measured by flow cytometry using Annexin V/SYTOX® Blue staining following the manufacturer's instruction.

Row | Structure (SMILES) | LSC frequency [1] | reduction of cell growth in MLL-rearranged human AML cell lines (MLLr cell lines)
1 | Cc1c(CN2CCC(Nc3ncnc4sc(CC(F)(F)F)cc34)CC2)ccc2c1cc(C#N)n2Cc1cn[nH]c1 [MI-503, 4-Methyl-1-(1H-pyrazol-4-ylmethyl)-5-[[4-[[6-(2,2,2-trifluoroethyl)thieno[2,3-d]pyrimidin-4-yl]amino]-1-piperidinyl]methyl]-1H-indole-2-carbonitrile] | 1/363914 | –
2 | O=C(N[C@H](Cc1coc2ccccc12)B(O)O)[C@@H]1C[C@@H]2CC[C@H]1O2 [M3258, ((S)-2-(benzofuran-3-yl)-1-((1R,2R,4S)-7-oxabicyclo[2.2.1]heptane-2-carboxamido)ethyl)boronic acid] | – | recapitulated
